Experimental data: patent publication US8940800B2, “Pharmaceutical compositions with enhanced performance” (Bend Research, Inc., priority 2004, dated 2015)
Where “and” joins values, the source holds several entries; their conditions need not be identical. Equal values may be shown once. Values belong to the compound of their own block, whether it stands above or below them.

Tests used:
[1] = In vitro dissolution test, microcentrifuge method, PBS (Example 1); assay type: physicochemical; details: PBS pH 6.5, 37° C.; for AUC90: 90 minutes; for C1200: concentration at 1200 minutes; for MDC,90: maximum concentration during first 90 minutes
Description: Dispersions 2, 3, 4, and 10 were evaluated in in vitro dissolution tests using a microcentrifuge method. In this method, 3.6 mg of the spray-dried dispersions was added to a 2-mL microcentrifuge tube. The tube was placed in a 37° C. sonicating bath, and 1.8 mL of phosphate-buffered saline (PBS) at pH 6.5 and 290 mOsm/kg was added. The samples were quickly mixed using a vortex mixer for about 90 seconds. The theoretical maximum concentration of drug if all the drug dissolved was 1000 μg/mL. The samples were centrifuged at 13,000 G at 37° C. for 1 minute. The resulting supernatant solution was then sampled (100 μL) and diluted with 200 μL methanol and then analyzed by HPLC. The tubes were then mixed on the vortex mixer and allowed to stand undisturbed at 37° C. until the next sample. Samples were collected at 4, 10, 20, 40, 90, and 1200 minutes.
As controls, in vitro tests were performed using the procedure described above, except that 0.18 mg of crystalline drug was placed in a microcentrifuge tube and mixed with 1.8 mL of PBS.

[2] = In vitro membrane permeation test, Drug 1 (Example 6); assay type: physicochemical; details: 37° C.
Description: Dispersion 14 was evaluated in vitro using a membrane permeation test as follows. An Accurel® PP 1E microporous polypropylene membrane was obtained from Membrana GmbH (Wuppertal, Germany). The membrane was washed in isopropyl alcohol and rinsed in methanol in a sonicating bath for 1 minute at ambient temperature, and then allowed to air dry at ambient temperature. The feed side of the membrane was then plasma-treated to render it hydrophilic by placing a sample of the membrane in a plasma chamber. The atmosphere of the plasma chamber was saturated with water vapor at a pressure of 550 mtorr. A plasma was then generated using radio frequency (RF) power inductively coupled into the chamber via annular electrodes at a power setting of 50 watts for 45 seconds. The contact angle of a drop of water placed on the surface of the plasma-treated membrane was about 40°. […]
To form the feed solution, a 1.2 mg sample of the dispersion was weighed into the feed reservoir. […] Samples were then diluted in 250 μL IPA and analyzed using HPLC. […]
The maximum flux of drug across the membrane (in units of μg/cm^2-min) was determined by performing a least-squares fit to the data from 0 to 60 minutes to obtain the slope, multiplying the slope by the permeate volume (5 mL), and dividing by the membrane area (4.9 cm^2). […]

[3] = Microcentrifuge dissolution test in MFD solution, crystallization inhibition (Example 5); assay type: physicochemical; details: 37° C.
Description: First, Dispersions 12 and 13 were evaluated in an in vitro dissolution test using the microcentrifuge method described in Example 1 except that 2.04 mg of the dispersions were separately added to microcentrifuge tubes in duplicate. A 1.8-mL sample of a model fasted duodenal (MFD) solution was then added to the tube and the samples were quickly mixed using a vortex mixer for about 90 seconds. The theoretical maximum concentration of drug if all the drug dissolved was about 100 μgA/mL, where “μgA” refers to the active micrograms of Drug 5. Samples were collected and analyzed by HPLC using a Kromasil C4 column (250 mm×4.6 mm). The mobile phase consisted of 0.2 vol % H3PO4/acetonitrile in a volume ratio of 45/55. Drug concentration was calculated by comparing UV absorbance at 245 nm to the absorbance of Drug 5 standards.
As a control, […] of Drug 5 (in the HCl salt form) was added to a separate microcentrifuge tube so that the concentration of drug if all of the drug had dissolved would have been about 200 μgA/mL. […] The MDC90 values provided by Dispersions 12 and 13 were 3.5-fold and 3.0-fold that of the crystalline Drug 5 control, while the AUC90 values were 2.6-fold and 2.7-fold that of the crystalline control. Furthermore, the concentration of dissolved Drug 5 after 1200 minutes (C1200) was higher for Dispersions 12 and 13 than the crystalline control, with Dispersions 12 and 13 providing C1200 values that were 1.7- and 1.4-fold that of the crystalline control, respectively.

[4] = Solubility of drug in polymer by double-scan DSC (Example 3); assay type: physicochemical
Description: The solubilities of drug in HPMCAS polymers were determined using a double-scan differential scanning calorimetry (DSC) analysis of the dispersions as follows. The DSC analysis was carried out on either a TA Instruments DSC2920 or a Mettler DSC 821, calibrated with indium. DSC samples were prepared by weighing 2-4 mg of the dispersion in an aluminum pan with a pinhole. The sample was heated under nitrogen, at a rate of 5° C. per minute from about −20° C. to about 140° C. […] Heating above the Tg allows the drug to phase separate from the dispersion if the drug solubility in the polymer is lower than the drug loading.
The sample was then cooled and the sample was scanned a second time using the procedures outlined above. […] The amount of phase separated amorphous drug was estimated by comparing the magnitude of the heat capacity for the phase separated amorphous drug with the heat capacity for pure amorphous drug controls. […]

[5] = Aqueous solubility of the drugs used in the examples; details: water

SMILES: CCOC(=O)N1c2ccc(C(F)(F)F)cc2[C@@H](N(Cc2cc(C(F)(F)F)cc(C(F)(F)F)c2)C(=O)OC)C[C@H]1CC [Crystalline Drug 1, [2R,4S]4-[(3,5-bis-trifluoromethyl-benzyl)-methoxycarbonyl-amino]-2-ethyl-6-trifluoromethyl-3,4-dihydro-2H-quinoline-1-carboxylic acid ethyl ester]
AUC90 [1]: <88 min-μg/mL | C1200 [1]: <1 µg/mL | MDC,90 [1]: <1 µg/mL | Maximum Flux of Drug 1 ([2]; feed solution 0.5% NaTC/POPC (MFD), permeate 20 wt % decanol in decane): 0.076 μg/cm^2-min | Maximum Flux of Drug 1 ([2]; feed solution 2.0 wt % NaTC/POPC (fed state model)): 0.13 μg/cm^2-min

SMILES: O=C1Cc2cc(CCN3CCN(c4nsc5ccccc45)CC3)c(Cl)cc2N1 [Crystalline Drug 5]
AUC90 [3]: 1,700 min-μg/mL | MDC,90 [3]: 22 µg/mL | C1200 ([3]; 1200 minutes): 9 µg/mL

SMILES: CCOC(=O)N1c2ccc(C(F)(F)F)cc2[C@@H](N(Cc2cc(C(F)(F)F)cc(C(F)(F)F)c2)C(=O)OC)C[C@H]1CC [Drug 1, [2R,4S]4-[(3,5-bis-trifluoromethyl-benzyl)-methoxycarbonyl-amino]-2-ethyl-6-trifluoromethyl-3,4-dihydro-2H-quinoline-1-carboxylic acid ethyl ester]
solubility of the drug in the polymer ([4]; in the H grade of HPMCAS): 35-40 wt % | solubility of the drug in the polymer ([4]; in the M grade of HPMCAS): 25 to 30 wt % | solubility [5]: < 0.04 µg/mL

SMILES: CCc1cc(Oc2cccc(N(Cc3cccc(OC(F)(F)C(F)F)c3)C[C@@H](O)C(F)(F)F)c2)ccc1Cl [Drug 4, (2R)-3-[[3-(4-chloro-3-ethylphenoxy)phenyl][[3-(1,1,2,2-tetrafluoroethoxy)phenyl]methyl]amino]-1,1,1-trifluoro-2-propanol]
solubility [5]: < 1 µg/mL

SMILES: O=C1Cc2cc(CCN3CCN(c4nsc5ccccc45)CC3)c(Cl)cc2N1 [Drug 5]
solubility [5]: < 0.1 µg/mL and ~10 µg/mL

Next, values leading:

AUC90 [1]: <88 min-μg/mL | C1200 [1]: <1 µg/mL | MDC,90 [1]: <1 µg/mL
SMILES: CC[C@@H]1C[C@H](N(Cc2cc(C(F)(F)F)cc(C(F)(F)F)c2)C(=O)OC)c2cc(C(F)(F)F)ccc2N1C(=O)OC(C)C [Crystalline Drug 3, [2R,4S]4-[(3,5-bis-trifluoromethyl-benzyl)-methoxycarbonyl-amino]-2-ethyl-6-trifluoromethyl-3,4-dihydro-2H-quinoline-1-carboxylic acid isopropyl ester]

solubility [5]: < 1 µg/mL
SMILES: CC[C@@H]1C[C@H](N(Cc2cc(C(F)(F)F)cc(C(F)(F)F)c2)C(C)=O)c2cc(C(F)(F)F)ccc2N1C(=O)OC(C)C [Drug 2, [2R,4S]4-[acetyl-(3,5-bis-trifluoromethyl-benzyl)-amino]-2-ethyl-6-trifluoromethyl-3,4-dihydro-2H-quinoline-1-carboxylic acid isopropyl ester]

solubility [5]: < 1 µg/mL
SMILES: CC[C@@H]1C[C@H](N(Cc2cc(C(F)(F)F)cc(C(F)(F)F)c2)C(=O)OC)c2cc(C(F)(F)F)ccc2N1C(=O)OC(C)C [Drug 3, [2R,4S]4-[(3,5-bis-trifluoromethyl-benzyl)-methoxycarbonyl-amino]-2-ethyl-6-trifluoromethyl-3,4-dihydro-2H-quinoline-1-carboxylic acid isopropyl ester]
